What was measured:
[1] = system: European red mite Panonychus ulmi; test: Ovicide activity on European red mite eggs on beet leaf discs (Example 6); assay type: in vivo; settings: after 8 days; leaf discs immersed five seconds; oil 1.5%, meal 2 g l^−1, hexythiazox 50 mg p.a. l^−1
Description: Beet leaf discs measuring 60 mm were placed in a 90 mm diameter Petri dish and kept in a climatic cell at 24° C., 75% R.H. with 17 hours of light. Fifteen female mites were placed on each leaf disc to lay their eggs. The females were removed after 24 hours and the eggs were counted. Each group consisted of three leaf discs. The treatments were carried out with the “deep test” method: the leaf discs were immersed for five seconds in a suspension consisting of 1.5% vegetable oil, 1.5% vegetable oil+2 g l^−1 carinata meal, 1.5% UF mineral oil+2 g l^−1 carinata meal or the acaricide hexythiazox Matacar (Sipcam) at a dose of 50 mg p.a. I^−1. The control was immersed in water. The ovicide activity was assessed starting on the fourth day and every 2 days up to the eighth day, calculating the percentage of hatched eggs estimated indirectly by counting the live offspring.

Cacopsylla pyri = test: Field test on pear lice (Example 11); assay type: in vivo
Description: Pear plants with a high level of lice infestation were treated on May 6 and 20 2006. […]

## C[C@@H]1[C@@H](c2ccc(Cl)cc2)SC(=O)N1C(=O)NC1CCCCC1 [commercial acaricide, hexythiazox]
[1]
  hatched eggs: 23.4%

## Abamectin
Cacopsylla pyri; ten days after the first treatment
  surviving offspring: 22
Cacopsylla pyri; third observation (30 days after the second treatment)
  offspring or nymphs found: no offspring or nymphs were found
